# Reference: patent US5932556A, “Methods and compositions for regulation of CD28 expression” (priority 1995, dated 1999)
# How the values were obtained:
# [1] = test system: IL-2 production in Jurkat E6-1 cells; assay: IL-2 production in activated Jurkat cells; type: cell-based, human; details: activated IL-2 production in Jurkat T cells; relative to the activity of 5 μM RT03S (100%)
# Method: The T-cell lymphoma cell lines, Jurkat E6-1 (CD28+/CD4+) cells (152-TIB) and HUT 78 (CD28-/CD4+) cells (TIB-161) (ATCC, Rockville, Md.) were maintained in RPMI-10 (RPMI-1640 medium containing […] HEPES buffer, pH 7.4, 10% fetal calf serum (FCS) (Hyclone, Logan, Utah), 1% L-glutamine and 1% penicillin/streptomycin).
# (§1) Prior to the addition of human peripheral T-cells or T-cell lymphoma cell lines (0.2-0.3×10^6), duplicate 96-well microtitre plates were pre-coated with purified anti-CD3 monoclonal antibody (mAb) (6.25-200 ng/well) (clone HIT 3a, Pharmingen, San Diego, Calif.) and washed twice with cold phosphate-buffered saline, pH 7.4 (PBS). Anti-CD3 mAb-treated T-cells were further activated by the addition of 2 ng phorbol 12-myristate 13-acetate (PMA) (Calbiochem, La Jolla, Calif.) and incubated for 48 h at 37° C. Anti-CD3/PMA-activated T-cells were treated with 1-20 μM CD28-specific and control oligonucleotides immediately following activation and re-treated 24 h later. T-cells from one duplicate plate was used for immunofluorescence analysis and the supernatants used for cytokine studies and the second plate was used for T-cell proliferation analysis.
# Cell-derived human cytokine concentrations were determined in cell supernatants from the first duplicate microplate. Mitogen-induced changes in interleukin-2 (IL-2) levels were determined using a commercially available ELISA kit (R & D systems Quantikine kit, Minneapolis, Minn.) or by bioassay using the IL-2-dependent cell line, CTLL-2 (ATCC, Rockville, Md.). Mitogen-induced changes in interferon-gamma and interleukin-8 (IL-8) levels were determined by ELISA using kits from Endogen (Cambridge, Mass.) and R & D systems (Quantikine kit, Minneapolis, Minn.) respectively. All ELISA results were expressed as pg/ml and the CTLL-2 bioassay as counts per minute representing the IL-2 -dependent cellular incorporation of ^3 H-thymidine (ICN, Costa Mesa, Calif.) by CTLL-2 cells.
# (§2) Peripheral blood mononuclear cells (PBMCs) were isolated from healthy donors by density gradient centrifugation followed by T cell enrichment using Lymphokwik (One Lambda). Contaminating monocytes were removed by adherence to plastic. Purified T cells were >99% CD2^+, <1% HLA-DR^+ and <5% CD25^+. Jurkat E6-1 (CD28^+ /CD4^+) T cells and HUT 78 (CD28^- /CD4^+) T cells and the monocytic cell line, THP were obtained from ATCC. Cells were cultured at a concentration of 0.2-0.3×10^6 /well and activated with plate-immobilized anti-CD3 monoclonal antibody (mAb) (HIT3A 0.25 μg/ml) (Pharmingen) and 2 ng phorbol 12-myristate 13-acetate (PMA) (Calbiochem).
# Proliferative responses were assessed by measuring ^3 H-thymidine (1 μCi, ICN) incorporation for the last 16 h of each assay. Cells were harvested onto filters and DNA synthesis was measured following scintillation counting on a Wallac Betaplate counter. Cytokine concentrations in culture supernatants were assayed using ELISA kits for IL-2, IL-8 (R & D Systems) and IFN-γ (Endogen) or by bioassay using the IL-2 -dependent cell line, CTLL-2 (ATCC).
# [2] = test system: CD28 expression in anti-CD3/PMA-activated human T-cells; assay: Activation-induced CD28 surface expression, immunofluorescence analysis; type: cell-based; details: for Relative inhibition of expression, CD28: anti-CD3/PMA-activated peripheral human T cells, relative to the activity of 5 μM RT03S (100%); for loss of inhibitory activity relative to RT03S: G to C substitutions within both four G regions
# Method: as §1
# Following activation, […] cell supernatant from the first duplicate microplate was transferred to another microplate for analysis of cell-derived cytokine production. The remaining cells were washed twice with isotonic saline solution, pH 7.4 (Becton Dickinson, Mansfield, Mass.) and resuspended in […] isotonic saline solution and split into two samples. One sample aliquot was co-stained with either PE-CD28/FITC-CD4 or PE-CD54/FITC-CD25 mAb and non-specific fluorescence was assessed by staining the second aliquot with PE/FITC-labeled isotype-matched control monoclonal antibody. All fluorescence-labeled monoclonal antibodies were obtained from Becton Dickinson (San Jose, Calif.). Incubations were performed in the dark at 4° C. for 45 min using saturating mAb concentrations. Unincorporated label was removed by washing in PBS prior to the analysis with a FACScan flow cytometer (Becton Dickinson). Antigen density was indirectly determined in gated live cells and expressed as the mean channel of fluorescence (MCF). Surface expression of specific antigens (CD54, CD25) was represented as the mean channel shift (MCS) obtained by subtracting the MCF of FITC- or PE-labeled isotype-matched (IgG1) control mAb-stained cells from the MCF of FITC- or PE-labeled antigen-specific mAb stained cells. Alternatively, surface expression of the CD4^+ -subset of cells stained with CD28 mAb was determined by subtracting the MCF of […]. The viability of control untreated and oligonucleotide-treated cells were determined in each batch of all oligonucleotides in multiple donors by staining with the vital dye, propidium iodide (5 μg/ml final concentration). The percentage of live cells which excluded propidium iodide was determined by flow cytometry and was >90% (range 90-99%) following treatment with all batches of all oligonucleotides at a dose range of 1-20 μM (FIG. 2).
# as §2
# Cells were co-stained with either PE-CD28/FITC-CD4 or PE-CD54/FITC-CD25 mAb or with PE/FITC-labeled isotype-matched controls (Becton Dickinson). Cell surface antigen density (CD28, CD54, CD25) was confirmed by flow cytometry (FACScan, Becton Dickinson). Viability was assessed by propidium iodide (5 μg/ml) exclusion in control untreated and oligo-treated CD4^+ cells from multiple donors and was typically >90% (range 90-99%) following 48 h incubation with 1-10 μM of each batch of all oligonucleotides.
# [3] = molecular target: CD3 (T-cell receptor/CD3 complex) on human T cells (human)
# [4] = molecular target: CD3 (T-cell receptor/CD3 complex) on human T cells (human); remark: listed apart in the source
Substance,"Relative inhibition of expression, IL-2 [1]","Relative inhibition of expression, CD28 [2]",loss of inhibitory activity relative to RT03S ([2]; range over the named group),"reduction of relative bioactivity ([2]; insertion or deletion of bases separating the sets of G's, range over the named group)","surface expression of CD28 (immunofluorescence, MCS) [3]",incorporation of 3H-thymidine (T-cell proliferation) (counts per minute) [4]
"RT05S: TTG GAG GGG GAG GAG GGG, SEQ ID NO: 51 (DNA TTGGAGGGGGAGGAGGGG; chemistry not given here)",100%,136%,–,–,–,–
"RT06S: TTC CAG CCC CTC CTC CCC, SEQ ID NO: 64 (DNA TTCCAGCCCCTCCTCCCC; chemistry not given here)",22%,29%,–,–,–,–
"RT09S: TTG GAG GGG GAG GTG GGG, SEQ ID NO: 52 (DNA TTGGAGGGGGAGGTGGGG; chemistry not given here)",100%,126%,–,–,–,–
"RT10S: TTG GAG GCG GTG GTG GCG, SEQ ID NO: 53 (DNA TTGGAGGCGGTGGTGGCG; chemistry not given here)",38%,31%,56-69%,–,–,–
"RT11S: GGG GAG GAG GGG CTG GAA, SEQ ID NO: 50, sense sequence, upstream region of the CD28 gene (sense GGGGAGGAGGGGCTGGAA; chemistry not given here)",100%,100%,–,–,–,–
"RT18S: GGG GTG GTG GGG, SEQ ID NO: 57, core 12 mer sequence (DNA GGGGTGGTGGGG; chemistry not given here)",120%,103%,–,–,–,–
"RT19S: G GGG TTG GGG, SEQ ID NO: 58 (DNA GGGGTTGGGG; chemistry not given here)",89%,30%,–,52-70%,–,–
"RT23S: TTG GAGCCG GTG GTG G, SEQ ID NO: 56 (DNA TTGGAGCCGGTGGTGG; chemistry not given here)",57%,38%,56-69%,–,–,–
"RT24S: TTG GAG CCG GTG GTG GCC, SEQ ID NO: 54 (DNA TTGGAGCCGGTGGTGGCC; chemistry not given here)",57%,40%,56-69%,–,–,–
"RT25S: TTG GAG GGG CTC CTC GGG, SEQ ID NO: 55 (DNA TTGGAGGGGCTCCTCGGG; chemistry not given here)",25%,44%,56-69%,–,–,–
"anti-CD3 monoclonal antibody (clone HIT 3a, Pharmingen)",–,–,–,–,150 MCS,302000
